Assay results from ChEMBL document CHEMBL1201862, “PubChem BioAssay data set” (2004).
Values joined by “and” are separate entries in the source; they are usually repeats but may differ in a detail not shown here. Equal values may be shown once. Active and inactive are the calls of the source.

Assays:
[1] = molecular target: FAD-linked sulfhydryl oxidase ALR (Homo sapiens, UniProt P55789); assay: ALR-catalysed DTT oxidation blockers – biochemical, H2O2 detection, luminescence, cherry-pick, dose response (AID 493248)
[2] = off-target signal loss in HeLa-CEM21 co-culture – HeLa F-luc CTL cells, cherry-picked, counter-screen for HIV-1 Env fusion inhibitor project, dose response (AID 652040); type: functional, cell-based;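 note: potency for signal decrease marking cytotoxic or nonspecific inhibition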
[3] = blockers of HIV-1 ZM109 envelope-driven cell-cell fusion – HeLa effector, CEM target cells, luciferase, cherry-pick, dose response (AID 652058); type: functional, cell-based;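 note: luciferase signal from HIV-1 Env mediated cell-cell fusion of effector and target cells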
[4] = blockers of HIV-1 envelope-mediated cell-cell fusion – cherry-pick, dose response (AID 652057); type: functional, cell-based
[5] = HIV-1 AD8 envelope cell-cell fusion blockers – cherry-pick, dose response (AID 652062); type: functional, cell-based;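 note: luciferase signal from cell-cell fusion driven by HIV-1 clade B AD8 Env; potency is for inhibitors of fusion seen as a drop in luminescence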
[6] = molecular target: Fatty acid synthase (Homo sapiens, UniProt P49327); assay: inhibition of human FAS-TE enzyme activity – biochemical, kinetic fluorescence intensity, dose response (AID 624326); type: functional;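 note: rate of fluorescence rise from hydrolysis of a fluorogenic O-methyl fluorescein ester substrate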
[7] = molecular target: T1, DNA repair protein RAD52 homolog (Homo sapiens, UniProt P43351); type: functional, biochemical
T1 sequence (P43351 whole entry): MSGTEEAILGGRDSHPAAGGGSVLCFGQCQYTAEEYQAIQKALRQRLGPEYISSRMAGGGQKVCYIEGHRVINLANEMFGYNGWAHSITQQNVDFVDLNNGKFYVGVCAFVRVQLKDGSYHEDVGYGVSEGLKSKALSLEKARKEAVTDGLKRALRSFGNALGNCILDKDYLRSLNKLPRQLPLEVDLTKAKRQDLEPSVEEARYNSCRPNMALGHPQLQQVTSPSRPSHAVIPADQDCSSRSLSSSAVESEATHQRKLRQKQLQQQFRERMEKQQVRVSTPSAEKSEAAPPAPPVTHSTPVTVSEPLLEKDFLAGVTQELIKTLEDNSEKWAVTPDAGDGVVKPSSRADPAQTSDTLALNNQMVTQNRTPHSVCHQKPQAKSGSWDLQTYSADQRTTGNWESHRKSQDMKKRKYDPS

[8] = molecular target: T2, Heat shock factor protein 1 (Mus musculus, UniProt P38532); assay: enhancement of HSF1-driven luciferase signal – cell-based, NIH3T3, luminescence, dose retest, confirmation (AID 435004); type: functional;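 note: stress induced by proteasome inhibitor MG132 added 30 min after compound; luciferase reporter driven by HSF1 response element in NIH3T3 cells; actives raise luminescence as potentiators of the MG132 stress response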
T2 sequence (P38532 whole entry): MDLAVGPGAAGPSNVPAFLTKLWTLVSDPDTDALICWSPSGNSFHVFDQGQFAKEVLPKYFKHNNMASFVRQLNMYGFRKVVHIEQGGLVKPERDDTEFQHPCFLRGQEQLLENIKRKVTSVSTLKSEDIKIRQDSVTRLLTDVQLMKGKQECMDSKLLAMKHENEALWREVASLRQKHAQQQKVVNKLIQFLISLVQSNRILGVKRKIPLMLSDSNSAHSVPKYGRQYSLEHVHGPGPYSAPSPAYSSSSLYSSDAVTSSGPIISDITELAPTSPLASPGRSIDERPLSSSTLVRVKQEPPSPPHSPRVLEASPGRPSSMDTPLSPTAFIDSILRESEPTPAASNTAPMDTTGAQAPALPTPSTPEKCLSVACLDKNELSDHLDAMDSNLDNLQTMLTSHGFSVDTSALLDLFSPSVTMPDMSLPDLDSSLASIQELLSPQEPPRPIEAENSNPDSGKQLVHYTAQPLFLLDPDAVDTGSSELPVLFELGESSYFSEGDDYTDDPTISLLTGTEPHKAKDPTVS

[9] = molecular target: Induced myeloid leukemia cell differentiation protein Mcl-1 (Homo sapiens, UniProt Q07820); type: functional
[10] = tested on: Streptococcus sp. 'group A'; assay: Streptococcus pyogenes SK(-)GAS viability under kanamycin – luminescence, BacTiterGlo, confirmation, counter-screen for streptokinase expression inhibitor project, dose response (AID 1900); type: functional, organism-based
[11] = tested on: Streptococcus; assay: GAS UMAA2166 growth inhibition – luminescence, BacTiterGlo, counter-screen for streptokinase expression inhibitor project, dose response (AID 1915); type: functional, organism-based;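 note: potency for reduction of bacterial viability or growth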
[12] = molecular target: T3, Streptokinase A (Streptococcus pyogenes serotype M1, UniProt P10520); assay: viability-normalized secreted streptokinase activity reduction – plasminogen activation absorbance, OD405, dose response (AID 1914); type: functional, Streptococcus pyogenes M1 GAS;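 note: secreted streptokinase activity via plasminogen activation per viability signal from cell pellet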
T3 sequence (P10520 whole entry): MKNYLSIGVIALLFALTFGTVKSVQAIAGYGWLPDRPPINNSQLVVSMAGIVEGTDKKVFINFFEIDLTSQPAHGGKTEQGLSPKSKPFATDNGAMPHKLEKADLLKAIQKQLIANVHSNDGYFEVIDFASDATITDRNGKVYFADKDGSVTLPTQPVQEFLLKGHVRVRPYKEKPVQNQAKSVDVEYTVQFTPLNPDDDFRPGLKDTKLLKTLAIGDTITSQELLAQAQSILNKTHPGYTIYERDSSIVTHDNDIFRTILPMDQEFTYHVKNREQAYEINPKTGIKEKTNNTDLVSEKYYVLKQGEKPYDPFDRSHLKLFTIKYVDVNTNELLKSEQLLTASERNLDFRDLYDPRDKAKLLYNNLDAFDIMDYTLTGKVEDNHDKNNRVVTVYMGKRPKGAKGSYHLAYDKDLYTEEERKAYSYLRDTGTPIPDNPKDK

[13] = reduction of Shn3 3'UTR-driven luciferase in osteoblasts – cell-based, Clone20 osteoblasts, firefly luciferase, cherry-picked, dose response (AID 624132); type: functional;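 note: firefly luciferase luminescence from reporter carrying the Shn3 3'UTR in osteoblasts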
[14] = tested on: Vero; assay: cells; type: functional; conditions: Chlorocebus sabaeus
[15] = molecular target: Cytochrome P450 2C9 (Homo sapiens, UniProt P11712)
[16] = molecular target: Cytochrome P450 2C19 (Homo sapiens, UniProt P33261); assay: Cytochrome panel assay with activity outcomes. Panel member name: p450-cyp2c19 Compounds with AC50 equal or less than 10 uM are considered active; type: functional; conditions: read-out: AC50
[17] = molecular target: T4, Cytochrome P450 1A2 (Homo sapiens, UniProt P05177);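 note: PubChem cytochrome P450 panel assay, CYP1A2 panel member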
T4 sequence (P05177 whole entry): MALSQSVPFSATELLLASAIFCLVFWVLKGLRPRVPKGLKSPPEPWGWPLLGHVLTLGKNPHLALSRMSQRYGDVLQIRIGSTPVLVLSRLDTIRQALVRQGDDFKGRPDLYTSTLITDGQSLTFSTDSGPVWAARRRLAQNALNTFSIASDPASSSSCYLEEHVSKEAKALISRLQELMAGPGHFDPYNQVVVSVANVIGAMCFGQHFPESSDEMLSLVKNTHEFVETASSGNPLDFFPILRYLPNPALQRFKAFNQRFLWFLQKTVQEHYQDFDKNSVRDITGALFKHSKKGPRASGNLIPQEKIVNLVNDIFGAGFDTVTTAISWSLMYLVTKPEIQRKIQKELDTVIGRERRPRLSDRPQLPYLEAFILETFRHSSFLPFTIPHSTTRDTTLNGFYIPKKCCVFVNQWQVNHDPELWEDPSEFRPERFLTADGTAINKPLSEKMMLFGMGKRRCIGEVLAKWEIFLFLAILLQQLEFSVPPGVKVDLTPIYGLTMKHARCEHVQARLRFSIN

[18] = Luminescence Cell-Based Dose Retest to Confirm Inhibitors of Cancer Stem Cells. [Related pubchem assays (depositor defined):AID2717, AID2721]; type: functional; conditions: Homo sapiens
[19] = molecular target: Cytochrome P450 2D6 (Homo sapiens, UniProt P10635);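 note: CYP2D6 member of a cytochrome P450 panel assay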
[20] = molecular target: Cytochrome P450 3A4 (Homo sapiens, UniProt P08684);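 note: CYP3A4 tested as one member of a cytochrome P450 panel screen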
[21] = tested on: H9c2; assay: cells; type: functional, cell-based; conditions: Rattus norvegicus, H9c2, Myocardium;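 note: confirmatory concentration-response retest of ultra-high-throughput screening hits for modulation of myocardial damage; cell death induced by hydrogen peroxide oxidative stress; compound pretreatment for 60 min then peroxide exposure for 2 h; potency is for protecting the cells against peroxide damage rather than for killing them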

Sequence of FAD-linked sulfhydryl oxidase ALR (P55789 whole entry, the tested form may be a part): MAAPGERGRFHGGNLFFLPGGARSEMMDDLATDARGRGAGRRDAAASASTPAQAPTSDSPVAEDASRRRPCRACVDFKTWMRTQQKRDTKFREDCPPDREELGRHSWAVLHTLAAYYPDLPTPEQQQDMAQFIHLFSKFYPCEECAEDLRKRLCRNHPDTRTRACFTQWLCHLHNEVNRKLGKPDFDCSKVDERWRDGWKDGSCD
Sequence of Cytochrome P450 2D6 (P10635 whole entry): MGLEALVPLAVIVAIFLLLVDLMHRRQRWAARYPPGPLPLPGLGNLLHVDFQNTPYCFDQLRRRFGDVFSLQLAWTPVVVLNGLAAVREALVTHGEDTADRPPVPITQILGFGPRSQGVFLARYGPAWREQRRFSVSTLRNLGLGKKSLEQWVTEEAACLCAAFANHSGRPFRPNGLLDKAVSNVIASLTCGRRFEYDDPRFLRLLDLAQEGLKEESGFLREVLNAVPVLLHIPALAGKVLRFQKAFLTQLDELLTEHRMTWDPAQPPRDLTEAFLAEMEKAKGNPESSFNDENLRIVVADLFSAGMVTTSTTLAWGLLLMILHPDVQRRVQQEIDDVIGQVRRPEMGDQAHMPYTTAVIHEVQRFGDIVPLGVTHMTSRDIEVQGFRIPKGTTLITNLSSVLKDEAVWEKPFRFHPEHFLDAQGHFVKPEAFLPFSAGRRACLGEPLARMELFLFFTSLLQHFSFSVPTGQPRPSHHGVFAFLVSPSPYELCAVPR
Sequence of Cytochrome P450 2C9 (P11712 whole entry): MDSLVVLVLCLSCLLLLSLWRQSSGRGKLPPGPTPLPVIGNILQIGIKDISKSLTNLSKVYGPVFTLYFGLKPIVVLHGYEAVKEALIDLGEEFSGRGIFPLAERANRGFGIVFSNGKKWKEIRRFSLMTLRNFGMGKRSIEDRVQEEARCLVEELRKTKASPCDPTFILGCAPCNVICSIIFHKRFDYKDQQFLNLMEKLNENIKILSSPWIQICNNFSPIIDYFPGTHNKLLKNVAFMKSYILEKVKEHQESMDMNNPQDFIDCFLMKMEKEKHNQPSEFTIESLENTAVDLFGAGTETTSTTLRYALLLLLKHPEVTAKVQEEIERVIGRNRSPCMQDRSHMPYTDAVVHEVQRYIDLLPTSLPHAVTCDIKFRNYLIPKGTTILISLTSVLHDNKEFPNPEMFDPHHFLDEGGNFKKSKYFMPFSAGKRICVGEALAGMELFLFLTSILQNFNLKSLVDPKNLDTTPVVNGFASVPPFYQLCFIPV
Sequence of Induced myeloid leukemia cell differentiation protein Mcl-1 (Q07820 whole entry): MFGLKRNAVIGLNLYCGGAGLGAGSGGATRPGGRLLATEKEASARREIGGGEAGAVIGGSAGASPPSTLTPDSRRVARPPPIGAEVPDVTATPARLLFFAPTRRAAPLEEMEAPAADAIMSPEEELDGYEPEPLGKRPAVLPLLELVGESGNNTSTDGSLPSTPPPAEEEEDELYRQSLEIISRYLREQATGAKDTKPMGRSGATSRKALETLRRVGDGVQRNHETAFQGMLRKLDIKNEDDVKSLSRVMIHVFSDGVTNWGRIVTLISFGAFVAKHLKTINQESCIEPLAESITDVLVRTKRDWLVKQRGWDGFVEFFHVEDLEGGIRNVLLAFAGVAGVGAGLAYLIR
Sequence of Cytochrome P450 2C19 (P33261 whole entry): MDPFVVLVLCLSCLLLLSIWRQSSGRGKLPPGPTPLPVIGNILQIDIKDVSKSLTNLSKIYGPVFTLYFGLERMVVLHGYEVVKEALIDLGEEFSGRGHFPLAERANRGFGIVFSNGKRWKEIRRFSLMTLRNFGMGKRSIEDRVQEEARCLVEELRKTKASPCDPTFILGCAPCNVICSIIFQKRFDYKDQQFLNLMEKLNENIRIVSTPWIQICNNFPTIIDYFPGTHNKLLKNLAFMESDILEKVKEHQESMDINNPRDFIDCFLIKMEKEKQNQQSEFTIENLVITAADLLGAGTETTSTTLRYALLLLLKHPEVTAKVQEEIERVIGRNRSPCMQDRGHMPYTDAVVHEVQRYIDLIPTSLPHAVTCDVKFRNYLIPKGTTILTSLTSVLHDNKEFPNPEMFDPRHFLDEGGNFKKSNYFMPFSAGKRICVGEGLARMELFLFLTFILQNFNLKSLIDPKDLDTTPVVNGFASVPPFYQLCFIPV
Sequence of Fatty acid synthase (P49327 whole entry): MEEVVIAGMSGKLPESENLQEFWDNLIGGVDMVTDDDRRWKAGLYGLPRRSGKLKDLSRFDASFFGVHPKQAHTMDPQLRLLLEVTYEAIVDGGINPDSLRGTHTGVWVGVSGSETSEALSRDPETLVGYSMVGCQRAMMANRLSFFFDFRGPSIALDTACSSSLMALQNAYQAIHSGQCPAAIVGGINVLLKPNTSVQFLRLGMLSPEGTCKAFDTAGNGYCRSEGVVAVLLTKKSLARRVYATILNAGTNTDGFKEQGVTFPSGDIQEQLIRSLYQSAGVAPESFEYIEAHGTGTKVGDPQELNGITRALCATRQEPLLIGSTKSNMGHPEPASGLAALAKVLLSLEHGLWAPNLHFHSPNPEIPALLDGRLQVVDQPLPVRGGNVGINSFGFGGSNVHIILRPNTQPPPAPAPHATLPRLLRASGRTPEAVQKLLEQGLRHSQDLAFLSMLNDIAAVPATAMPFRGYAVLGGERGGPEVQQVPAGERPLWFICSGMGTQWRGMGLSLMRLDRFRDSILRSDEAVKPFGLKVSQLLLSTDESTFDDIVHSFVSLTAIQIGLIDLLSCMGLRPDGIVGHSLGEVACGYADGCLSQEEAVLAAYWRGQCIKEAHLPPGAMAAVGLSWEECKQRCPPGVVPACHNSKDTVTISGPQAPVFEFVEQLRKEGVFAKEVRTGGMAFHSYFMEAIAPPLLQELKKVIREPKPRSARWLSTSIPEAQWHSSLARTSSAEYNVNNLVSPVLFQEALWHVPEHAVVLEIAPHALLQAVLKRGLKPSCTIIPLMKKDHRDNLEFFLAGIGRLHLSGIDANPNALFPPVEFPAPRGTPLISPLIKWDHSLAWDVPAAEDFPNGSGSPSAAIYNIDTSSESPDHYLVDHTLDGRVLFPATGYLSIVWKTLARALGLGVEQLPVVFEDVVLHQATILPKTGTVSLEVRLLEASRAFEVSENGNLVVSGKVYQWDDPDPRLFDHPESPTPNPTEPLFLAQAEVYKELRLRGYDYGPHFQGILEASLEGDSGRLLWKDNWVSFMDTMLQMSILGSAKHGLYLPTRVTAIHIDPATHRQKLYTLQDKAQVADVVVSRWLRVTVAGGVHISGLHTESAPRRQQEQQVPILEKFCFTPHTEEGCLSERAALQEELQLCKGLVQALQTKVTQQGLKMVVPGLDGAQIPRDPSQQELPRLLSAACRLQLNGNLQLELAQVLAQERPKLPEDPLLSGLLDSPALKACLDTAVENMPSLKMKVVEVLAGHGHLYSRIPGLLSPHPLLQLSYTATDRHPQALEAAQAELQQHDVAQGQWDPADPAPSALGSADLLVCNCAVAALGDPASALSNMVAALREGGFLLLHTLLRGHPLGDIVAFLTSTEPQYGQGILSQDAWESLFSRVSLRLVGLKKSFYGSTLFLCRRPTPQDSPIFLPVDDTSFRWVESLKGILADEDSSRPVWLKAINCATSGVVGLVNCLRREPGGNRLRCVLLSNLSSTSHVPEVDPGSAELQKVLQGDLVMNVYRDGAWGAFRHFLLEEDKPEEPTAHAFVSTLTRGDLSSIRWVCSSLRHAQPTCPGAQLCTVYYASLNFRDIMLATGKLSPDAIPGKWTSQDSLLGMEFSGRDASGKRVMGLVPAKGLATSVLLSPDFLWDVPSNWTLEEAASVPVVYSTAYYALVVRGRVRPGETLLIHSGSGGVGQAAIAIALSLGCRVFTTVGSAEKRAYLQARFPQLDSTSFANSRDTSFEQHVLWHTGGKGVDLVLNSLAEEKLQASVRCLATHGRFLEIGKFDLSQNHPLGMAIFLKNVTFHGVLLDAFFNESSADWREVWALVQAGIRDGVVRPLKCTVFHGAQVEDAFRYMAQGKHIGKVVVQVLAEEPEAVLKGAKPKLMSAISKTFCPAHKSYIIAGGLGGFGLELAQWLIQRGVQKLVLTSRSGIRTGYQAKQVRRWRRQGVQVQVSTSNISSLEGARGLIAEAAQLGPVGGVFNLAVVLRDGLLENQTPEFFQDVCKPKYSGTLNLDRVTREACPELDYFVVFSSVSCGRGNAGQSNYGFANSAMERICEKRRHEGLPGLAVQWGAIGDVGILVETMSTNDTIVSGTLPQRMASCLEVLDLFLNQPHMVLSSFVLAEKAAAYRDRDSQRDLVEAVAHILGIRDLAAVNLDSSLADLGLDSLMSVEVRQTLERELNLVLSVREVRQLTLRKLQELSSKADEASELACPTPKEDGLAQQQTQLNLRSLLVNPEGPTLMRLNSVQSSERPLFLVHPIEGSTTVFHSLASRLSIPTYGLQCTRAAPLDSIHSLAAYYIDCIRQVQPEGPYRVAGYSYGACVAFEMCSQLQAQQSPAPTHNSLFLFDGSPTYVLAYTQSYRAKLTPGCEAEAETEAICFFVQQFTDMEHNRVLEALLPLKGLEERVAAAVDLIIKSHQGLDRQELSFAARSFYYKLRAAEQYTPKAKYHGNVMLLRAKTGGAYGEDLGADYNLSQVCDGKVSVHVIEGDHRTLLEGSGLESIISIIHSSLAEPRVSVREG
Sequence of Cytochrome P450 3A4 (P08684 whole entry): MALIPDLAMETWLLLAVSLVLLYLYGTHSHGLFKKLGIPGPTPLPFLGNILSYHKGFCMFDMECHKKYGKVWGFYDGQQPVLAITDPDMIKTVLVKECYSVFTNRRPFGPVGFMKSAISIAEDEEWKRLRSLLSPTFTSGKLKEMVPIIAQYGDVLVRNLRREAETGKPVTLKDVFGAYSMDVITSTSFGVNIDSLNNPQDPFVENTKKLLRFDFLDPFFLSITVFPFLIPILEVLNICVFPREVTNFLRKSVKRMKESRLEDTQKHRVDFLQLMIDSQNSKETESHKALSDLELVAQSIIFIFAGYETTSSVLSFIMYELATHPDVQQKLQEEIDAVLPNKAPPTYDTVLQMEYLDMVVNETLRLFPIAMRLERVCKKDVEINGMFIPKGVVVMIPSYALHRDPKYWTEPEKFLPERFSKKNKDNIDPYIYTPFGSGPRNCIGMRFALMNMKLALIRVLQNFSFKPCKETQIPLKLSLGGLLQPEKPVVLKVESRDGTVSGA

COc1cccc(NC(=O)NNC(=O)CCc2ccc(O)c(O)c2)c1
AC50 [1]: 3.12 µM (active)

Cn1c(C(=O)NCCCN2CCN(c3ccccc3F)CC2)cc2c(O)nc3ccccc3c21
AC50 [2]: 24.5 µM (active)
AC50 [3]: 10.3 µM (active)
AC50 [4]: 2.82 µM (active)
AC50 [5]: 8.93 µM (active)

O=C(Nc1cc(Cl)cc(Cl)c1)C(c1ccccc1)N1CCCCC1 (stereo not drawn)
AC50 [2]: 7.36 µM (active)
AC50 [3]: 8.47 µM (active)
AC50 [4]: 3.35 µM (active)

C1=C(c2ccco2)N2CCN=C2S1
AC50 [1]: 2.33 µM (active)

COC(=O)Cc1ccc(O)c(N)c1
AC50 [1]: 21.6 µM (active)

CCN(CC(=O)NCc1cccs1)S(=O)(=O)c1ccc([N+](=O)[O-])cc1
IC50 [6]: 17.7 µM (active)

C[C@@H]1NC(=O)[C@H](CCCN=C(N)N)NC(=O)c2cc([N+](=O)[O-])cc(I)c2NCCC[C@@H](C(N)=O)NC1=O
AC50 [7]: 12.3 µM (active)

Sc1[nH]cnc2c3cc(Cl)ccc3nc1-2
AC50 [2]: 2.35 µM (active)
AC50 [4]: 3.37 µM (active)

COc1cc(COCC(O)CN2CCN(CCN3C(=O)c4cccc5cccc(c45)C3=O)CC2)cc(OC)c1OC (stereo not drawn)
AC50 [7]: 3.54 µM (active)
EC50 [8]: 59.2 µM (active)

O=C(O)CCc1ccc(-c2ccccc2)n1NC(=O)c1sc2ccccc2c1Cl
AC50 [1]: 1.72 µM (active)

Cc1ccc(/C=C2\SC(=S)N(Cc3ccccc3)C2=O)o1
IC50 [9]: 3.76 µM (not active)

O=C(Nc1ccc2[nH]c(-c3ccc4[nH]cnc4c3)nc2c1)c1cccs1
EC50 [10]: > 150 µM (not active)
EC50 [11]: 48.4 µM (inconclusive)
EC50 [12]: > 150 µM (not active)
IC50 [9]: 7.21 µM (active)

COc1ccc(C2N(S(=O)(=O)c3ccc(C)cc3)CCN2S(=O)(=O)c2ccc(C)cc2)cc1
AC50 [2]: 6.47 µM (active)
AC50 [3]: 0.715 µM (active)
AC50 [4]: 3.05 µM (active)
AC50 [5]: 4.68 µM (active)

CCOc1ccc(NC(=O)N(CCN2CCOCC2)Cc2ccc3c(c2)CCCN3CC)cc1
IC50 [9]: 0.852 µM (active)

CCC(C)[C@H]1CN=C(S)N1CCc1cc(C(F)(F)F)cc(C(F)(F)F)c1 (stereo partly drawn)
AC50 [13]: 21.6 µM (active)

COc1ccc(C2CC(c3cccc(F)c3)=NN2c2ccc(S(N)(=O)=O)cc2)cc1 (stereo not drawn)
CC50 [14]: > 25 µM (active)

COc1ccc(CCNC(=O)CCC(=O)N2CCOc3ccc(Cl)cc32)cc1OC
AC50 [13]: > 70 µM (inactive)

Cc1cc(C(=O)OCC(=O)NCCCN2CCCC2=O)c2ccccc2n1
AC50 [15]: inconclusive
AC50 [16]: 35.5 µM (inconclusive)
AC50 [17]: 14.1 µM (inconclusive)

O=C(O)c1ccc(C=C(c2nc3ccccc3s2)c2nc3ccccc3s2)cc1
CC50 [14]: > 25 µM (active)
AC50 [18]: 4.53 µM (active)

Cc1nn(C(=O)CN2C(=O)c3ccccc3C2=O)c(C)c1Br
AC50 [15]: inconclusive
AC50 [19]: 7.08 µM (inconclusive)
AC50 [16]: 4.47 µM (inconclusive)

Cc1ccc(-c2nnn(CC(=O)N(CC3CCCO3)C(C(=O)NC3CCCCC3)c3ccc(F)cc3)n2)o1 (stereo not drawn)
AC50 [2]: 1.27 µM (active)
AC50 [3]: 2.45 µM (active)
AC50 [4]: 0.79 µM (active)
AC50 [5]: 2.56 µM (active)

CN(C)CCNC(=O)c1cccc(-c2cnc3c(NC=O)cc(-c4cc(F)c(F)c(F)c4)cn23)c1
AC50 [7]: 7.21 µM (active)

Nc1c(C(=O)Nc2ccc(Br)cc2)sc2nc(N3CCOCC3)c3c(c12)CCCC3
CC50 [14]: > 25 µM (active)

O=C(NCC(F)(F)F)[C@@H]1c2ccccc2C(=O)N(CC23CC4CC(CC(C4)C2)C3)[C@H]1c1ccc(CO)cc1
AC50 [4]: 0.304 µM (active)
AC50 [5]: 2.43 µM (active)

CN1CC[C@@H]2CN[C@H](c3ccccc3Br)C[C@@H]21
AC50 [7]: 4.58 µM (active)

CC(C)CC#Cc1ccc2c(c1)O[C@@H](CN(C)S(=O)(=O)c1ccc(F)cc1)[C@@H](C)CN([C@H](C)CO)S2(=O)=O
AC50 [3]: 10.1 µM (active)
AC50 [4]: 19.6 µM (active)
AC50 [5]: 10.2 µM (active)

C[N+](C)(C)CC(=O)N/N=C/c1c2ccccc2cc2ccccc12
AC50 [7]: 4.16 µM (active)

Oc1cccc2c(O)nccc12
AC50 [15]: inconclusive
AC50 [20]: 25.1 µM (inconclusive)
AC50 [17]: 15.8 µM (inconclusive)
IC50 [21]: 31.3 µM (inactive)

O=S(=O)(c1cccc2c(Cl)cccc12)N1CCCNCC1
AC50 [15]: inconclusive
AC50 [19]: 39.8 µM (inconclusive) and 25.1 µM (inconclusive)
AC50 [17]: 15.8 µM (inconclusive) and 31.6 µM (inconclusive)
